Results as given in patent US7129381B2, “Glucopyranosyloxybenzylbenzene derivatives, medicinal compositions containing the same and intermediates in the production thereof” (Kissei Pharmaceutical Co., Ltd., priority 2000, dated 2006).

Tested on: ICR mice
Test: Acute toxicity test
Type: in vivo
Settings: 300 mg/kg subcutaneous, male ICR mice, 5 animals, observation for 24 hours
Method: A mixture (saline:polyethylene glycol 400:ethanol =5:4:1) was added to a test compound to prepare 30 mg/mL solution. As experimental animals, 5 week old male ICR mice (CLEA JAPAN, INC. 29–35 g, 5 animals in each group), which were fasted for 4 hours, were used. The above solution was subcutaneously administered at a dose of 10 mL/kg (300 mg/kg) to the above experimental animals and then observation for 24 hours was performed.

Question: Which Death number does the source give for COc1ccc(Cc2c(C)cc(C)cc2O[C@@H]2O[C@H](CO)[C@@H](O)[C@H](O)[C@H]2O)cc1 [Example 37, 2-(4-Methoxybenzyl)-3,5-dimethylphenyl β-D-glucopyranoside] here?
Answer: 0/5
